Measurements published in patent US20100254940A1, “Compositions and Methods for Regulating an Immune Response in a Subject” (INNATE PHARMA, S.A., priority 2002, published 2010).

Tests used:
Vγ9Vδ2 T cells = experiment: Phosphostim (BrHPP) i.v. pharmaco-dynamic GLP study in cynomolgus monkeys; type: in vivo
Procedure: The objective of this GLP study was to explore further the pharmaco-dynamic properties of Phosphostim (BrHPP, 200 mg; GMP batch) alone and in combination with IL-2 following several i.v. administrations to cynomolgus monkeys. In particular, this study was planned to evaluate: • A dose-effect relationship between Phosphostim injection and γδ T cell peripheral amplification; • The pharmaco-dynamic effect of a second, third and up to fifth administration of Phosphostim in male and female animals; • The functionality of in vivo induced γδ T cells, by dosing systemic cytokines after Phosphostim treatment; • The effect of treatment with IL-2 alone and to validate the selected dose of 0.6 million IU/day/animal.
Phosphostim was administered i.v., as slow infusions (50 ml in 30 minutes), at various dose levels to five groups of two animals (one male+one female). Males received two successive injections of BrHPP (Day 0 and Day 22) before sacrifice and females four injections (Days 0, 22, 52 and 84). Two females, selected upon their level of response to the 4th treatment, received a supplementary injection of BrHPP alone at Day 91, during γδ cell peripheral increase, for systemic cytokine dosages.
The administration schedule of the test product can be summarized as follows in Table 1:
The dose levels in Table 1 are can be converted to BrHPP pure (anionic) form equivalent by multiplying each dose by 0.6. Thus, the doses of 0.2, 4, 20, 50, 80, 120 and 160 mg/kg in Table 1 are equivalent respectively to 0.12, 2.4, 12, 30, 48, 72 and 96 mg/kg of anionic form BrHPP. • IL-2 was administered s.c. at the following frequency: from Day 0 to Day 6 and from Day 22 to Day 28 for all animals; from Day 52 to 58 and from Day 84 to Day 90 for all the females. IL-2 was administered as two separate s.c. injections approximately 8 hours apart of 0.3 million IU, corresponding to 0.6 million IU/day/animal.

[1] = Two-phase repeated dose toxicity study in cynomolgus monkeys, i.v. BrHPP; type: in vivo
Procedure: The objective of the first phase of this non GLP study was to determine BrHPP Maximum Tolerated Dose (MTD) in a group of two cynomolgus monkeys (one male, one female) by escalating doses. The second objective of this study was to characterize the toxicity of daily i.v. administration of Phosphostim for two weeks in two cynomolgus monkeys (one male, one female) at the MTD determined during the first phase of the study. The animals were treated at increasing dose-levels every 3 or 4 days (phase 1) and then at the estimated Maximum Tolerated Dose (MTD) daily for 2 weeks (phase 2).
A total of four cynomolgus monkeys (two males and two females) were divided into 2 groups and treated with BrHPP, by intravenous administration over a 1-hour infusion period as follows:
Group 1 (one male and one female) were administered BrHPP and/or Phosphostim (BrHPP, 200 mg) i.v. at increasing dose-levels (160, 400, 600, 900 and 1200 mg/kg) every 3 or 4 days. Anionic form BrHPP equilvalent to these doses are respectively: 96, 240, 360, 540 and 720 mg/kg. BrHPP was given as a solution after reconstitution in water for injection finally diluted in Ringer lactate under a dose volume of 4, 10 or 15 mL/kg.
Group 2 (one male and one female) were administered BrHPP i.v. daily at 900 mg/kg/day (540 mg/kg/day in anionic form BrHPP equivalent) for 2 weeks.
The animals were checked daily for mortality and clinical signs. Body weight was recorded pre-study and on the day of each administration in phase 1 or twice weekly throughout phase 2, and including on the day of necropsy for phase 2. Food consumption was estimated daily, starting at least 7 days pre-phase. Hematological, blood biochemical and/or peripheral blood lymphocyte subset analysis investigations were performed pre-study, on the day of each administration in phase 1, on day 7 in phase 2 and at the end of both phases. Electrocardiographic and blood pressure recordings were performed pre-study, on the day of each administration in phase 1 and on day 1 and at the end of treatment in phase 2. Blood, for determination of plasma levels of the test item, was sampled on days 1 and 14 in phase 2. On completion of each phase, animals were submitted to a complete macroscopic post-mortem examination and specified tissues preserved. In phase 2, selected body organs were weighed and microscopic examination of selected tissues was performed for all animals.

[2] = Half life of the molecule in primate sera; type: in vitro ADME; settings: 37° C.
Procedure: In vitro, we and others (Lang, 1995) have shown that the activation of Vg9Vd2 cells occurs within minutes after the addition of the molecule. Two mechanisms may prevent the molecule to be active in vivo i) the likely rapid renal clearance of such a small molecule and ii) a degradation process in vivo. […] Nevertheless, the concentration of the molecule, injected by intravenous route in relatively high amount, should be maintained beyond the 20 nM EC50 for a significant time, if no additional, blood cell or organ related degradation process occurs in vivo.

3-(bromomethyl)-3-butanol-1-yl-diphosphate [BrHPP]
γδ cell number increase (Vγ9Vδ2 T cells; 20 mg/kg (12 mg/kg anionic form) + IL-2): 20 fold | increase in circulating γδ cell count (Vγ9Vδ2 T cells; at around 120 mg/kg (EC50) + IL-2): 100 fold | circulating Vγ9Vδ2 T cells vs before treatment (Vγ9Vδ2 T cells; highest tested dose + IL-2): 200 fold | share of circulating Vγ9Vδ2 T cells in peripheral lymphocytes (Vγ9Vδ2 T cells; highest tested dose + IL-2): represented the majority of peripheral lymphocytes | estimated EC50 value in vivo, anionic form BrHPP (Vγ9Vδ2 T cells; i.v. + IL-2): ~72 mg/kg | estimated EC50 value of BrHPP in vivo (Vγ9Vδ2 T cells; i.v. + IL-2): around 120 mg/kg | first slightly efficient tested dose (Vγ9Vδ2 T cells; i.v. + IL-2, Day 7): 4 mg/kg | first slightly efficient tested dose, anionic form BrHPP (Vγ9Vδ2 T cells; i.v. + IL-2, Day 7): 2.4 mg/kg | macroscopic post-mortem examination ([1]; Phase 1 or Phase 2): No relevant findings | lymphocyte count ([1]; Phase 2, 900 mg/kg/day 2 weeks): increased lymphocyte count was noted in both animals | clinical signs ([1]; both treatment phases): no relevant clinical signs were noted | blood pressure ([1]; either phase): did not affect blood pressure | body weight evolution ([1]; either phase): had no effect on the body weight evolution | food consumption ([1]; either phase): unaffected | hematological or blood chemistry changes ([1]; phase 1, 160-1200 mg/kg): No treatment related hematological or blood chemistry changes | mortality ([1]; phase 1: 160-1200 mg/kg every 3 or 4 days, phase 2: 900 mg/kg/day 2 weeks): No unscheduled death occurred | absolute thymus weight ([1]; phase 2, female): slightly lower absolute thymus weight | microscopic findings, female ([1]; phase 2, female): Lymphoid depletion was seen in the thymus and mesenteric lymph node | microscopic findings, male ([1]; phase 2, male): increase of follicular germinal center in the mesenteric lymph node | half life of the molecule in primate sera [2]: about one
